In experiment [1] the target is human CB2 receptor (Homo sapiens (Human), UniProt P34972). Kind of experiment: Radioligand binding assay, [3H]-CP-55,940, HEK cell membranes expressing human CNR2. As to the method:
(§1) Radioligand Binding Assay
(§2) The affinity of the compounds of the invention for cannabinoid receptors was determined using recommended amounts of membrane preparations (PerkinElmer) of human embryonic kidney (HEK) cells expressing the human CNR1 or CNR2 receptors in conjunction with 1.5 or 2.6 nM [3H]-CP-55,940 (Perkin Elmer) as radioligand, respectively. Binding was performed in binding buffer (50 mM Tris, 5 mM MgCl2, 2.5 mM EDTA, and 0.5% (wt/vol) fatty acid free BSA, pH 7.4 for CB1 receptor and 50 mM Tris, 5 mM MgCl2, 2.5 mM EGTA, and 0.1% (wt/vol) fatty acid free BSA, pH 7.4 for CB2 receptor) in a total volume of 0.2 mL for 1 h at 30° C. shaking. The reaction was terminated by rapid filtration through microfiltration plates coated with 0.5% polyethylenimine (UniFilter GF/B filter plate; Packard). Bound radioactivity was analyzed for Ki using nonlinear regression analysis (Activity Base, ID Business Solution, Limited), with the Kd values for [^3H]CP55,940 determined from saturation experiments.

Experiment [2] has as its target human CB1 receptor (Homo sapiens (Human), UniProt P21554). Briefly: Radioligand binding assay, [3H]-CP-55,940, HEK cell membranes expressing human CNR1. As to the method:
as §1, §2

Setting [3] is: membranes of HEK cells expressing human CNR2, 2.6 nM [3H]-CP-55,940, 1 h at 30° C., read-out: human CB2 Ki.
Where [4] appears, read: membranes of HEK cells expressing human CNR1, 1.5 nM [3H]-CP-55,940, 1 h at 30° C., read-out: human CB1 Ki.

Read-outs that look alike come from different tables or passages of the source. A value given as a limit tells only on which side of the number the result lay.

Chain of human CB1 receptor (P21554 whole entry): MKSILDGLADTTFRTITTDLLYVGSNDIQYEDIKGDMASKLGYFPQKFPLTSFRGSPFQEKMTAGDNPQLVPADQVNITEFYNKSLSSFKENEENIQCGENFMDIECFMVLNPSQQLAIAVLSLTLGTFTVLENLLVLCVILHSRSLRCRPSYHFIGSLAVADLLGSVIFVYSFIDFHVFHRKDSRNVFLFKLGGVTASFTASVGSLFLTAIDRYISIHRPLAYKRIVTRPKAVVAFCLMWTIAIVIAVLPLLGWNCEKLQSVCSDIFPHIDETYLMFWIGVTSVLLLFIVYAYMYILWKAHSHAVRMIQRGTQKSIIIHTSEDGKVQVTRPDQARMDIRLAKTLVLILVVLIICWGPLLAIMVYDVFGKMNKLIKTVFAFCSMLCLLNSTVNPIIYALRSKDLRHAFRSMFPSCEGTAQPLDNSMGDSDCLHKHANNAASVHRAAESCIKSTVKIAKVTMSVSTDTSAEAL
Chain of human CB2 receptor (P34972 whole entry): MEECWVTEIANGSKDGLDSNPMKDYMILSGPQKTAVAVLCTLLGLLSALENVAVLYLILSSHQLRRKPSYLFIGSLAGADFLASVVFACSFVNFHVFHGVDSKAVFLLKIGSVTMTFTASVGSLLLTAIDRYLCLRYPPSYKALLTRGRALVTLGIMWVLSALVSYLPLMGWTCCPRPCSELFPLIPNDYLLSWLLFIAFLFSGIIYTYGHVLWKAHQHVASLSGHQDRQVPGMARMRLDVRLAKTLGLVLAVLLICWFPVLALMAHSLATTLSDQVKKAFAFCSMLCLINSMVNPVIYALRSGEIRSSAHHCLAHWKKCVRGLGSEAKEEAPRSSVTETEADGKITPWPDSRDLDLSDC

Broadly, the Ki is the equilibrium dissociation constant of an inhibitor or competing ligand from its target. On to `CC(C)(C)c1nc(N2CC[C@H](O)C2)c2nn(Cc3ccccc3S(=O)(=O)F)nc2n1` [Example 1, 2-({5-tert-Butyl-7-[(3S)-3-hydroxypyrrolidin-1-yl]-2H-[1,2,3]triazolo[4,5-d]pyrimidin-2-yl}methyl)benzene-1-sulfonyl fluoride], for which the Ki in experiment [1] is 1160 nM; in experiment [2] it was more than 10000 nM.

In the case of `CC(C)(C)c1nc(N2CCC(F)(F)C2)c2nn(Cc3ccccc3CS(=O)(=O)F)nc2n1` [Example 2, (2-{[5-tert-Butyl-7-(3,3-difluoropyrrolidin-1-yl)-2H-[1,2,3]triazolo[4,5-d]pyrimidin-2-yl]methyl}phenyl)methanesulfonyl fluoride], the inhibitory constant (Ki) is 637 nM in experiment [1] and more than 10000 nM in experiment [2].

Turning to `CC(C)(C)c1nc(N2CC[C@H](O)C2)c2nn(Cc3ccccc3CN=C=S)nc2n1` [Example 3, (3S)-1-(5-tert-Butyl-2-{[2-(isothiocyanatomethyl)phenyl]methyl}-2H-[1,2,3]triazolo[4,5-d]pyrimidin-7-yl)pyrrolidin-3-ol], the Ki in experiment [1] (setting [3]) is 529 nM; in experiment [2] (setting [4]) it was more than 10000 nM.

With `CC(C)(C)c1nc(N2CCC(F)(F)C2)c2nn(Cc3ccccc3N=C=S)nc2n1` [Example 4, 5-tert-Butyl-7-(3,3-difluoropyrrolidin-1-yl)-2-[(2-isothiocyanatophenyl)methyl]-2H-[1,2,3]triazolo[4,5-d]pyrimidine], the Ki in experiment [1] (setting [3]) was 453 nM; in experiment [2] (setting [4]), more than 10000 nM.

Regarding `CC(C)(C)c1nc(N2CCC(F)(F)C2)c2nn(Cc3ccccc3S(=O)(=O)F)nc2n1` [Example 5, 2-{[5-tert-Butyl-7-(3,3-difluoropyrrolidin-1-yl)-2H-[1,2,3]triazolo[4,5-d]pyrimidin-2-yl]methyl}benzene-1-sulfonyl fluoride], the Ki in experiment [1] is 361 nM; in experiment [2], more than 10000 nM.

As to `CC(C)(C)c1nc(N2CCC(F)(F)C2)c2nn(Cc3ccccc3CN=C=S)nc2n1` [Example 6, 5-tert-Butyl-7-(3,3-difluoropyrrolidin-1-yl)-2-{[2-(isothiocyanatomethyl)phenyl]methyl}-2H-[1,2,3]triazolo[4,5-d]pyrimidine], the inhibition constant (Ki) in experiment [1] (setting [3]) was 211 nM; in experiment [2] (setting [4]) it was 4880 nM.

For `C#Cc1cccc(S(=O)(=O)F)c1Cn1nc2nc(C(C)(C)C)nc(N3CCC(F)(F)C3)c2n1` [Example 7, 2-[[5-tert-Butyl-7-(3,3-difluoropyrrolidin-1-yl)triazolo[4,5-d]pyrimidin-2-yl]methyl]-3-ethynylbenzenesulfonyl fluoride], the inhibitory constant (Ki) in experiment [1] is 421 nM; in experiment [2], more than 10000 nM.

The record behind these values is patent US10450321B2, “[1,2,3]triazolo[4,5-D]pyrimidine derivatives” (Hoffmann-La Roche Inc., priority 2016, dated 2019).
